Results as given in patent publication US20250387382A1, “METHODS OF TREATING ESSENTIAL TREMOR” (Praxis Precision Medicines, Inc., priority 2023, published 2025).
Entries after “also recorded” stand apart in the source; their conditions may differ.

What was measured:
patients with ET [1] = assay: Randomized withdrawal sub-study / blinded 6-week crossover period of the Phase 2 extension; type: in vivo, human
From the text: At the re-randomization visit for the cross-over period, and every 7 days in that portion of the study, the treatment regimen was assigned by the IRT and dispensed by site pharmacist for direct-to-patient (DTP) shipping. In the cross-over period of the trial, all participants were centrally assigned to randomize to remain on the current regimen of Compound 1 or placebo using an IRT. After 3 weeks, participants receiving placebo were switched over to Compound 1 following the regimen described in Table 3. The IRT assigned treatment regimen based on the Tetras ADL response criteria after day 7.
The open-label protocol was amended to further assess the criteria to be used in the upcoming randomized withdrawal study in Phase 3 (as described in Example 3). In this sub-study, patients were re-randomized in a blinded-fashion to either receive placebo or continue to receive Compound 1. Twenty-one patients who completed assessments at week 14 of the Open Label Extension were eligible to participate in the blinded sub-study.
Patients were evaluated weekly over a total of 6 weeks, with 11 patients assigned to Compound 1 and 10 patients assigned to placebo for the initial 3-week period, crossing over to either placebo or Compound 1 for an additional 3-week period. Blinded rescue was triggered for patients on placebo if loss in the mADL11 exceeded 2 points at any timepoint.
The results of the Phase 2 trials with ulixacaltamie (see Examples 1 and 2) support the efficacy and safety of ulixacaltamide in patients with ET. […] In the double-blind (DB) portion of the Phase 2 study, the rescored TETRAS-ADL items 1-11 (mADL11) score decreased more in participants randomized to Compound 1 compared with placebo after 56 days of dosing, with least square mean (LSM standard error [SE]) scores of ([…] [0.81]) compared with placebo (−0.87 [0.95]). The LSM (95% confidence interval [CI]) treatment difference was −1.82 (95% CI: −3.565, −0.066; with a nominal p value of <0.05). In the Phase 2 extension period, 20 participants completed a blinded 6-week crossover period. Participants were randomized in blinded fashion to either 3 weeks of Compound 1 60 mg or placebo. Rescue treatment (Compound 1) was offered to participants if their mADL11 worsened by a preset threshold. […] None of the Compound 1-treated participants and 9 of 21 placebo-treated participants qualified for and received rescue treatment within the 3-week period.

patients with ET [2] = assay: Open-label extension of the Phase 2 trial (blinded six-week lead-in, week 14 assessment); type: in vivo, human
Description: After the DB part of the trial was complete, participants were able to choose to enter the Extension part of the trial. Participants who chose to enter the Extension began receiving OL study drug for up to 12 months, or start of the cross-over period, after a 43-day Extension DB Lead-in Period, whichever was earlier. During this Extension DB Lead-in Period, participants who received placebo or 60 mg in the DB part of the trial titrated up to 100 mg in a DB fashion utilizing the same dose titration regimen as in the DB part of the trial. Participants who received 100 mg in the DB part of the trial continued to receive 100 mg in a blinded fashion until all participants were receiving Compound 1 100 mg QAM as of Day 99. Participants who were unable to tolerate fixed-dose titration to 100 mg during the Extension DB Lead-in Period were discontinued from the trial and asked to attend the Safety Follow-up/EOS-E Visit. After the Extension DB Lead-in Period, participants flexibly dosed with Compound 1 (20-100 mg) QAM at the discretion of the Investigator during the Extension OL Period until the start of the cross-over period. Participants who consented to participate in the separate LTSS were able to end participation in the current study after completing the End of Treatment Visit and join the LTSS at any point during the Extension OL Period.
All participants who continued into the Extension part of the trial participated in a 43 day Extension DB Lead-in Period so all participants could be titrated to the 100-mg dose in a blinded fashion (Table 2) before receiving open-label, flexible doses of Compound 1 (20-100 mg) for up to 12 months (Days 100-459) during the Extension OL Period.
Following completion of the initial 8 weeks double-blind treatment phase of the Phase 2 trial described in Example 1, eligible patients had the option to continue their access to Compound 1 in an open-label extension phase (OLE). Participants who continued to the open label extension (OLE) phase remained blinded for a six-week lead-in phase.
In the Extension part of the trial, measures of efficacy include analysis of change from baseline to Days 70, 84, 99, 129, 159, 189, 279, 369, and 459 in modified ADL, CGI-S, TETRAS-ADL total score, TETRAS-PS total score, TETRAS UL score, TETRAS CUL score, and CGI-I and PGI-C scores at Days 70, 84, 99, 129, 159, 189, 279, 369, and 459.
A total of 65 patients who completed the double-blinded portion of the Phase 2 trial described in Example 1 were eligible to participate in the OLE and completed the week 14 assessment. FIG. 21 is a bar graph showing change in mADL11 scores from baseline, by study week from week 8 to week 14. Patients who were eligible and continued on Compound 1 (n=39) experienced an additional mean improvement in mADL11 of 1.7 points from 3.09 at Weck 8 (95% CI: 0.98, 5.2) to 4.81 (95% CI: 2.38, 7.23) after 14 weeks of treatment. Patients who switched from placebo to Compound 1 treatment during the OLE 6-week lead-in (n=26) experienced mean improvement in mADL11 of 3.15 points from 1.21 at Week 8 (95% CI: −1.04, 3.46) to 4.36 (95% CI: 1.68, 7.05.

[3] = patients who switched from Compound 1 to placebo
[4] = patients who continued on Compound 1, n=39
[5] = patients who switched from placebo to Compound 1, n=26

CC(C)(C)NC(=O)CN1CCC(CNC(=O)c2cc(F)cc(Cl)c2)CC1 [Compound 1, N-((1-(2-(tert-butylamino)-2-oxoethyl)piperidin-4-yl)methyl)-3-chloro-5-fluorobenzamide]
Patients who maintained their mADL11 within 3-points compared to baseline (patients with ET [1]; 52% on placebo): 85% | Participants with maintenance of response (patients with ET [1]; crossover period, Compound 1 60 mg, 11 of 21 on placebo): 17 of 20 | Safety signals (patients with ET [1]; in vivo): No new safety signals emerged; also recorded: No new safety signal was identified | Average loss of effect in mADL11 per week (patients with ET [1]; [3]): 47% | Mean loss of effect in mADL11 (patients with ET [1]; [3]): −1.15 points/week | Improvement in global mean change in mADL11 per week (patients with ET [1]; periods receiving Compound 1): 6% | Mean improvement in mADL11 (patients with ET [1]; periods receiving Compound 1): 0.16 points/week | Participants who qualified for and received rescue treatment (patients with ET [1]; within the 3-week period, 9 of 21 on placebo): None | Additional mean improvement in mADL11 from Week 8 to week 14 (patients with ET [2]; [4]): 1.7 points | mADL11 mean improvement from baseline after 14 weeks (patients with ET [2]; [4]): 4.81 points | mADL11 mean improvement from baseline at Week 8 (patients with ET [2]; [4]): 3.09 points | Mean improvement in mADL11 from Week 8 during OLE 6-week lead-in (patients with ET [2]; [5]): 3.15 points | mADL11 mean improvement from baseline after OLE 6-week lead-in (patients with ET [2]; [5]): 4.36 points | Overall safety results (patients with ET [2]; through 14 weeks of treatment): no change to the overall safety results
